Several values for one entry are separate records, joined by “and”; a condition that tells them apart may be missing. Equal entries are not always repeated. Where two headings read alike, the source gives them in different places. Blank lines part the entries; values can stand above or below the compound they belong to.
Columns and labels:
AF647‐labeled hCD1d [1] = target: T1, AF647‐labeled hCD1d (Homo sapiens, UniProt P15813); assay: Microscale thermophoresis (MST) binding assay; details: α‐GalCer titration with 0.05% Tween 20; estimated; read-out: K D (MST) of lipid
T1 construct: TEV protease cleavage site ENLYFQS (C); BirA biotinylation site (C); His7 (C); made in house; host or cells: TurboCHO cells (GenScript)
Text: (§1) The experimental limitations of ITF, such as low instrument sensitivity, high sample consumption, signal overlap with some ligands, and low throughput (Fossum et al., [2023]), made it necessary to employ alternative, complementary assays to quantify detergent binding to hCD1d. […] MST measures the diffusion of fluorescent molecules in response to microscopic temperature gradients (Seidel et al., [2013]). When a protein forms a complex with a ligand, changes in hydrodynamic properties, charge, or solvation energy alter its thermophoretic behavior, allowing detection of binding events. To perform MST experiments, Alexa Fluor 647 (AF647) dye was covalently attached to the primary amines of hCD1d via standard N‐hydroxysuccinimide coupling chemistry (Anderson et al., [1964]). The concentration of AF647‐hCD1d was kept constant, and the change in MST signal was measured as a function of increasing detergent concentration (Figure S3). Like ITF, any lipid or detergent that destabilizes CD1 can also alter the MST signal since unfolding changes the protein's Stokes radius and its thermophoretic behavior. […] This is why we compare MST results with ITF and nanoDSF, as described below.
(§2) For MST, hCD1d was fluorescently labeled with AF647‐NHS Ester (Invitrogen #A20006). Briefly, a 10 mM stock of AF647‐NHS was prepared in anhydrous DMSO. Then, 100 μL of 50 μM hCD1d in 1X PBS pH 7.4 was mixed with 1 μL of 10 mM AF647‐NHS (1:2 molar ratio of protein: dye). The mixture was allowed to react for 1 h in the dark at 25°C. Unreacted dye was removed from the protein–dye conjugate by performing size exclusion chromatography in the dark with a Superdex 200 Increase 10/300 GL column at a flow rate of 0.5 mL/min in SEC buffer (100 mM NaCl, 20 mM sodium phosphate, pH 7.2). The degree of labeling was determined by a NanoDrop spectrophotometer at A647 nm (dye absorbance) and A280 nm (hCD1d absorbance). The degree of labeling was determined from the ratio of dye concentration to protein concentration. The degree of labeling was ~75%.
(§3) MST experiments were performed using a Monolith NT.115 instrument (NanoTemper Technologies) using Monolith standard capillaries and the red excitation laser setup. The following settings were applied for all MST experiments: excitation power: 30%–50%, MST power: medium, before MST time: 3 s, MST on time (IR laser): 20 seconds, and after MST time: 1 s. MST measurements were analyzed using the Monolith Affinity Analysis software v2.3 and exported for plotting in GraphPad Prism v10.1. Three replicates were performed, and data are presented as the mean ± standard deviation (n = 3).
(§4) MST measurements of 100 nM AF647‐hCD1d were acquired in the absence and presence of detergents in 1X PBS pH 7.4 at 25°C. Prior to data acquisition, hCD1d and detergent or lipid samples were incubated at 37°C overnight (~12 h) to simulate in vitro and in vivo loading conditions. […] For 18:1 LPC experiments: MST data of 100 nM AF647‐hCD1d were acquired in the absence and presence of 18:1 LPC in 1X PBS pH 7.4 at 25°C.

[2] = Lipid solubility on resuspension in buffer; type: physicochemical; details: 1X PBS pH 7.4 with or without detergent
Text: Detergents were resuspended to desired stock concentrations in 1X PBS pH 7.4 using sonication/heating. The following lipids were purchased: 1‐oleoyl‐2‐hydroxy‐sn‐glycero‐3‐phosphocholine (18:1 LPC, Avanti Research #845875) and α‐galactosyl ceramide (α‐GalCer, Avanti Research #867000).

hCD1d [3] = target: T2, hCD1d (Homo sapiens, UniProt P15813+P61769); set-up: method as in Cantu et al., 2003; Naidenko et al., 1999; details: previously estimated, in the presence of detergent; ref Cantu et al., 2003; Naidenko et al., 1999; read-out: binding affinity to hCD1d; cited from earlier work
hCD1d [4] = target: T2, hCD1d; assay: Nano differential scanning fluorimetry (nanoDSF) thermal stability; type: binding; set-up: TEV protease cleavage site ENLYFQS (C); BirA biotinylation site (C); His7 (C); made in house; host or cells: TurboCHO cells (GenScript); details: absence vs presence of 50 μM α‐GalCer; with 0.05% Tween 20
Text: We next sought to probe the ability of each detergent to influence the thermal stability of hCD1d. NanoDSF has been previously applied to measure lipid/detergent‐induced thermal stability changes in target proteins (Cecchetti et al., [2021]; Kotov et al., [2019]), but has not yet been applied to ligand binding to CD1. NanoDSF measures the ITF ratio (F 350 nm/F 330 nm) of proteins as a function of temperature to extract thermodynamic parameters. Given that ligand binding typically shifts the melting temperature of proteins, the effect of a ligand on protein stability can be approximated with the ΔT m value (the difference in T m with and without excess ligand) (Cecchetti et al., [2021]; Kotov et al., [2019]). We found all detergents tested to destabilize hCD1d, albeit to different degrees, with ΔT m values ranging from −0.8 to −14.2°C (Figures 4, S4, and Table 1).
Nano differential scanning fluorometry (nanoDSF) was performed using a Prometheus NT.48 (NanoTemper Technologies). Purified hCD1d at 1 μM in 1X PBS pH 7.4 was loaded into nanoDSF grade standard capillaries (NanoTemper Technologies) and exposed to temperatures ranging from 20 to 95°C with a thermal ramping rate of 1°C/min. Excitation power was set to 50%. The ratio of intrinsic fluorescence emission (F 350 nm/F 330 nm) was monitored. Melting temperatures (T m) were obtained from fitting the first derivative plots in the Prometheus NT.48 Software. The experiments were performed in triplicate, and data are presented as the mean ± standard deviation (n = 3).
For experiments with most detergents, prior to data acquisition, hCD1d and detergent or lipid samples were incubated at 37°C overnight (~12 h) to simulate in vitro and in vivo loading conditions. […] For 18:1 LPC experiments: nanoDSF spectra were acquired in the absence and presence of 18:1 LPC in 1X PBS pH 7.4 at 25°C.

AF647‐labeled hCD1d [5] = target: T3, AF647‐labeled hCD1d (Homo sapiens, UniProt P15813+P61769); assay: Microscale thermophoresis (MST) binding assay
T3 construct: TEV protease cleavage site ENLYFQS (C); BirA biotinylation site (C); His7 (C); made in house; host or cells: TurboCHO cells (GenScript)
Text: as §1, §2, §3, §4

[6] = approximate, ref Fisher catalogue, cited from earlier work

T3 sequence (P61769+P15813 fused): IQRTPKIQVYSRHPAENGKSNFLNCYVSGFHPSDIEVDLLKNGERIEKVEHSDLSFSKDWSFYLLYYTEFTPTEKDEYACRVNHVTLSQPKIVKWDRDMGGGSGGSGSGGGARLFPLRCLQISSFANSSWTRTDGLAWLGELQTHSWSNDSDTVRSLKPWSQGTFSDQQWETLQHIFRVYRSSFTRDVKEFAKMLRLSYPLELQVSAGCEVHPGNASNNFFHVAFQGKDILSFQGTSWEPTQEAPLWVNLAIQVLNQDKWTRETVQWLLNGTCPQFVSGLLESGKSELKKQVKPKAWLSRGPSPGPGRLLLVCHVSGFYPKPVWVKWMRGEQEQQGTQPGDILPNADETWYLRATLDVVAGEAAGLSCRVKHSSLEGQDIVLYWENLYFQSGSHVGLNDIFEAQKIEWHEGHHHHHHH
T2 sequence (P61769+P15813 fused): as above
T1 sequence (P15813 whole entry, looked up): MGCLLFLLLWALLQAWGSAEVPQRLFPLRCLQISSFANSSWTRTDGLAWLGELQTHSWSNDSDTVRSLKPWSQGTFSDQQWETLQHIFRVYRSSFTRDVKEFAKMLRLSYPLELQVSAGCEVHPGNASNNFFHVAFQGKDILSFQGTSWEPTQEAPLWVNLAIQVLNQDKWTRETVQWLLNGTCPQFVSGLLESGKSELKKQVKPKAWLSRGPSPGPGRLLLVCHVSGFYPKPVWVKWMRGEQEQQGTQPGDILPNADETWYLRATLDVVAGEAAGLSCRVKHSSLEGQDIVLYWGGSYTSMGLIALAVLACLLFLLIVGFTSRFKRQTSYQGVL

Kd (AF647‐labeled hCD1d [1]): 6.6 ± 4.1 µM
solubility (in words) [2]: only soluble in the presence of Tween 20
ΔT m (nanoDSF) of lipid (hCD1d [4]): +13.7 ± 0.2 °C
Compound: CCCCCCCCCCCCCCCCCCCCCCCCCC(=O)N[C@@H](CO[C@H]1O[C@H](CO)[C@H](O)[C@H](O)[C@H]1O)[C@H](O)[C@H](O)CCCCCCCCCCCCCC [α‐GalCer, α‐galactosyl ceramide]
Kd (hCD1d [3]): 0.1 to 0.5 µM

Fnorm (rep 1-3) (AF647‐labeled hCD1d [5]; 3.05176e-8 M detergent): 785.26 ‰ and 791.115 ‰ and 789.222 ‰
Fnorm (rep 1-3) (AF647‐labeled hCD1d [5]; 6.10352e-8 M detergent): 784.438 ‰ and 791.56 ‰ and 788.778 ‰
Fnorm (rep 1-3) (AF647‐labeled hCD1d [5]; 1.2207e-7 M detergent): 784.577 ‰ and 791.858 ‰ and 788.445 ‰
Fnorm (rep 1-3) (AF647‐labeled hCD1d [5]; 2.44141e-7 M detergent): 783.564 ‰ and 789.878 ‰ and 788.022 ‰
Fnorm (rep 1-3) (AF647‐labeled hCD1d [5]; 4.88281e-7 M detergent): 786.159 ‰ and 790.976 ‰ and 787.911 ‰
Fnorm (rep 1-3) (AF647‐labeled hCD1d [5]; 9.76563e-7 M detergent): 783.182 ‰ and 790.102 ‰ and 788.409 ‰
Fnorm (rep 1-3) (AF647‐labeled hCD1d [5]; 1.95313e-6 M detergent): 785.891 ‰ and 792.21 ‰ and 790.819 ‰
Fnorm (rep 1-3) (AF647‐labeled hCD1d [5]; 3.90625e-6 M detergent): 790.454 ‰ and 796.89 ‰ and 795.418 ‰
Fnorm (rep 1-3) (AF647‐labeled hCD1d [5]; 7.8125e-6 M detergent): 794.424 ‰ and 799.885 ‰ and 798.852 ‰
Fnorm (rep 1-3) (AF647‐labeled hCD1d [5]; 1.5625e-5 M detergent): 798.147 ‰ and 805.399 ‰ and 802.688 ‰
Fnorm (rep 1-3) (AF647‐labeled hCD1d [5]; 3.125e-5 M detergent): 808.083 ‰ and 815.048 ‰ and 810.611 ‰
Fnorm (rep 1-3) (AF647‐labeled hCD1d [5]; 6.25e-5 M detergent): 810.692 ‰ and 818.134 ‰ and 815.29 ‰
Fnorm (rep 1-3) (AF647‐labeled hCD1d [5]; 0.000125 M detergent): 813.488 ‰ and 820.003 ‰ and 816.128 ‰
Fnorm (rep 1-3) (AF647‐labeled hCD1d [5]; 0.00025 M detergent): 817.047 ‰ and 822.493 ‰ and 816.971 ‰
Fnorm (rep 1-3) (AF647‐labeled hCD1d [5]; 0.0005 M detergent): 814.88 ‰ and 822.01 ‰ and 817.951 ‰
Fnorm (rep 1-3) (AF647‐labeled hCD1d [5]; 0.001 M detergent, 100 nM AF647‐hCD1d): 817.154 ‰ and 821.721 ‰ and 817.771 ‰
Kd (AF647‐labeled hCD1d [5]; Figure 5B, detergent binding to hCD1d, read-out: MST - Kd (uM) average): 15.1 µM
Kd (AF647‐labeled hCD1d [5]; detergent with 100 nM AF647‐labeled hCD1d, 25°C, apparent, read-out: K D (MST)): 15.1 ± 1.5 µM
Compound: NP‐40
CMC [6]: 290 µM
CMC ([6]; weight/volume): 0.0179%
